From patent US20260092071A1, “COMPOUNDS AND COMPOSITIONS AS SMARCA2/4 DEGRADERS AND USES THEREOF” (REGENTS OF THE UNIVERSITY OF MICHIGAN, priority 2022, published 2026) come the findings set out here.

The target of one experiment is SMARCA4 (Homo sapiens, UniProt P51532). In words: HiBit assay in engineered HT1080 CRISPR knock-in cell, 6 hrs (B series), SMARCA4. It counts as cell-based. Particulars: 6 hrs incubation; for DC50: read-out: SMARC A4 HT1080 HiBit DC50; for Dmax: HT-1080, HT1080 CRISPR knock-in cells, read-out: SMARC A4 HT1080 HiBit Dmax(%). The gist of the method:
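Using a 6 hr treatment window at 37° C and 5% CO2, tagged HT1080 knock-in cells were exposed to test compounds with DMSO vehicle held at 0.1%. Signal came from lytic LgBiT/substrate reagent added after incubation, with control wells lacking LgBiT, and was read as luminescence.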

The target of a further experiment is SMARCA2 (Homo sapiens, UniProt P51531). In words: HiBit assay in engineered HT1080 CRISPR knock-in cell, 6 hrs (B series), SMARCA2. The settings on record: 6 hrs incubation; for DC50: read-out: SMARC A2 HT1080 HiBit DC50; for Dmax: HT-1080, HT1080 CRISPR knock-in cells, read-out: SMARC A2 HT1080 HiBit Dmax (%). It counts as cell-based. The gist of the method: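 Engineered HT1080 knock-in cells, 2000 cells/well, 6 hrs compound exposure, 37° C/5% CO2, 0.1% DMSO final. Lytic detection: LgBiT 1:100 plus HiBiT substrate 1:50 in lytic buffer, 10 min shake at RT, luminescence read.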
SMARCA2, sequence (P51531 whole entry): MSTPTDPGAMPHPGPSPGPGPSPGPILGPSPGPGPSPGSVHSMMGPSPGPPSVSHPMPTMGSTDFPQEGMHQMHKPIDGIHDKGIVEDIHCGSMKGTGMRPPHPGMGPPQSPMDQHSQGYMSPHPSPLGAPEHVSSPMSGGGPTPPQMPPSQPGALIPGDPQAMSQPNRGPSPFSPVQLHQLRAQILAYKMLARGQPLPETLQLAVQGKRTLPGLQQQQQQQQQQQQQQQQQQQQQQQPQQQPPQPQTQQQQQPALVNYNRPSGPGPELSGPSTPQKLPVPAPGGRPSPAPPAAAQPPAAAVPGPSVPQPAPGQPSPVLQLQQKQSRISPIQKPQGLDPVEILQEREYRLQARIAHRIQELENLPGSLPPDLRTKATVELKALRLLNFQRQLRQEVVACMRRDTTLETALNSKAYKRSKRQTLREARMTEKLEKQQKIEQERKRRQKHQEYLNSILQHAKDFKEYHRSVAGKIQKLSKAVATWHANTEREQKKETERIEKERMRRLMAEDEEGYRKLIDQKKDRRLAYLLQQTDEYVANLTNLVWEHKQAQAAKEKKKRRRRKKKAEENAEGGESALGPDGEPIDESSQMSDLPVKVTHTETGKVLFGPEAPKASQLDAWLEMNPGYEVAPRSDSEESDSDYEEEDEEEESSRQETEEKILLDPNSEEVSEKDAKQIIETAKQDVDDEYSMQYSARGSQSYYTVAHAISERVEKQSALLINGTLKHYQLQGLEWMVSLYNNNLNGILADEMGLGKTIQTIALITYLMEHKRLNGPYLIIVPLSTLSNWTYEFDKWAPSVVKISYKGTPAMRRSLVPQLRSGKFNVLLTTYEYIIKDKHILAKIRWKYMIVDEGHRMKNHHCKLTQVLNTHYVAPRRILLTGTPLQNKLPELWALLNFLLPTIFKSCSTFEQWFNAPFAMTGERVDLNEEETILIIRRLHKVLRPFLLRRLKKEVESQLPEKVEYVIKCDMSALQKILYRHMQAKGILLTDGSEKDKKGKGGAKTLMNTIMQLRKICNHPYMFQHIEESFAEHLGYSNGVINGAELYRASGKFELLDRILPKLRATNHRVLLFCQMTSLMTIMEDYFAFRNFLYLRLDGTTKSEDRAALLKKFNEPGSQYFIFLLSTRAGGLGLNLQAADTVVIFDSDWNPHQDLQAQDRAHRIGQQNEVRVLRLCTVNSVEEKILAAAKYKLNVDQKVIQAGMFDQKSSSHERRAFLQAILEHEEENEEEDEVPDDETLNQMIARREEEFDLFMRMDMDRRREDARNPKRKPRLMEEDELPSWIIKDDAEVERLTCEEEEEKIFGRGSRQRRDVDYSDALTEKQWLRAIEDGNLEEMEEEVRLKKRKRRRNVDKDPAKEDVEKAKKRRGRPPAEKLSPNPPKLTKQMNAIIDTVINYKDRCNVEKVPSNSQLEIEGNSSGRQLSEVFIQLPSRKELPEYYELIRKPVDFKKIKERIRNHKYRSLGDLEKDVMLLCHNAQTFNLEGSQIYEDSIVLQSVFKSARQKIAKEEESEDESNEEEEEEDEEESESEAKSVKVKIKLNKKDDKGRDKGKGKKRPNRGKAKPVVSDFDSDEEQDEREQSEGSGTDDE

SMARCA4, sequence (P51532 whole entry): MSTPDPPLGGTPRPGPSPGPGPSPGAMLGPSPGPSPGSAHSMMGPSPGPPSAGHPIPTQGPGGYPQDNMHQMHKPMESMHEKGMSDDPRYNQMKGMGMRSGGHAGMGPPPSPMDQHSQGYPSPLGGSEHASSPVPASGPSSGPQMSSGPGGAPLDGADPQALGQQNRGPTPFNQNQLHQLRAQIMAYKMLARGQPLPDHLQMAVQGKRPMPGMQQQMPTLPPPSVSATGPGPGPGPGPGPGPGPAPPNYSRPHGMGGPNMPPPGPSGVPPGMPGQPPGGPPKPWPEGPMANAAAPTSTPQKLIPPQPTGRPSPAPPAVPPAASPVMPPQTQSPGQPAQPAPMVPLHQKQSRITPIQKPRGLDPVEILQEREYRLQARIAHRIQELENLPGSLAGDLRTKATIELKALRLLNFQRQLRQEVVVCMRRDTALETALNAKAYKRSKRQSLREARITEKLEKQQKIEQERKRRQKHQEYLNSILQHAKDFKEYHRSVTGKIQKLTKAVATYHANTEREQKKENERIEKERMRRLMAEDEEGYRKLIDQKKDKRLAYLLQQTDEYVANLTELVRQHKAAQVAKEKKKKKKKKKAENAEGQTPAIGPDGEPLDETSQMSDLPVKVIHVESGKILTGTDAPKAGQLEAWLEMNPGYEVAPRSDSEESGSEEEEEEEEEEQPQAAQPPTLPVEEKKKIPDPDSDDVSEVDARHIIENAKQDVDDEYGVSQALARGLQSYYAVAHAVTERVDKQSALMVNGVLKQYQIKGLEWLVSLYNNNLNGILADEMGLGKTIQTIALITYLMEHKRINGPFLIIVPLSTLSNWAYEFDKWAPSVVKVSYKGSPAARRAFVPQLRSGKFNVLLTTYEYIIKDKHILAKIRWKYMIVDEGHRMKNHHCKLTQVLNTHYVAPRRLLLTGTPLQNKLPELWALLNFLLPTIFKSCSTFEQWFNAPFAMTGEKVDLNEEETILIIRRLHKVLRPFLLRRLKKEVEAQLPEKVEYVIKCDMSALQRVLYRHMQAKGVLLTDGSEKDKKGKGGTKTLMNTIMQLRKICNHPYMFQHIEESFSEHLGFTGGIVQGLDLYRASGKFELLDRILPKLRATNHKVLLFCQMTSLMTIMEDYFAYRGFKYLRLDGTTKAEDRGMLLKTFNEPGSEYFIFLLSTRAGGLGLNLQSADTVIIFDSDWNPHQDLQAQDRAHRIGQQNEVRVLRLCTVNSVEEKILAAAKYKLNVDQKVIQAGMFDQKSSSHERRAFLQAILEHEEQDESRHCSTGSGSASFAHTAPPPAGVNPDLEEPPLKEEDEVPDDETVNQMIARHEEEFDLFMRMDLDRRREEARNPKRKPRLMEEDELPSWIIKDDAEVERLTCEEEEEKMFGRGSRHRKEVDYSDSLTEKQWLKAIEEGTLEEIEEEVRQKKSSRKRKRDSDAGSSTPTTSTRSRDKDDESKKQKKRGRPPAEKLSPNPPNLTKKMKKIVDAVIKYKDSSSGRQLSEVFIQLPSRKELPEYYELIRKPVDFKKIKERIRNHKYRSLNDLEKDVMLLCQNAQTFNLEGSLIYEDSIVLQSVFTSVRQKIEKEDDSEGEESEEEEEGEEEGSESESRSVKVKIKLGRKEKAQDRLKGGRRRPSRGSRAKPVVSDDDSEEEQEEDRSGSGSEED

On to `Cc1ncsc1-c1ccc([C@H](C)NC(=O)[C@@H]2C[C@@H](O)CN2C(=O)[C@@H](c2cc(OCCN3CCC(c4ccc5c(c4)C(C)(C)c4nc(=O)c6c(Cl)cccc6n4-5)CC3)no2)C(C)C)cc1` [Compound B4, (2S,4R)-1-((R)-2-(3-(2-(4-(4-chloro-7,7-dimethyl-5-oxo-5,7-dihydroindolo[1,2-a]quinazolin-9-yl)piperidin-1-yl)ethoxy)isoxazol-5-yl)-3-methylbutanoyl)-4-hydroxy-N—((S)-1-(4-(4-methylthiazol-5-yl)phenyl)ethyl)pyrrolidine-2-carboxamide], for which the DC50 at SMARCA4 (HT1080 CRISPR knock-in cells) and on SMARCA2 (HT1080 CRISPR knock-in cells) was less than 100 nM in each case. Moreover, the Dmax on SMARCA4 is 70 to 90%; on SMARCA2, greater than 90%.
For `Cc1cc(C(C(=O)N2C[C@H](O)C[C@H]2C(=O)N[C@@H](CCCCCN2CCC(c3ccc4c(c3)-n3c(nc(=O)c5c(Cl)cccc53)C4(C)C)CC2)c2ccc(-c3scnc3C)cc2)C(C)C)on1` (stereo partly drawn) [Compound B84, (2S,4R)-N-((S)-6-(4-(4-chloro-7,7-dimethyl-5-oxo-5,7-dihydroindolo[1,2-a]quinazolin-10-yl)piperidin-1-yl)-1-(4-(4-methylthiazol-5-yl)phenyl)hexyl)-4-hydroxy-1-(3-methyl-2-(3-methylisoxazol-5-yl)butanoyl)pyrrolidine-2-carboxamide], the DC50 at SMARCA4 (HT1080 CRISPR knock-in cells) and at SMARCA2 (HT1080 CRISPR knock-in cells) was less than 100 nM throughout. Moreover, the Dmax on SMARCA4 and at SMARCA2 was greater than 90% throughout.
Consider `Cc1ncsc1-c1ccc(C2(NC(=O)[C@@H]3C[C@@H](O)CN3C(=O)[C@@H](n3cc([C@H]4CC[C@H](CN5CCC(c6ccc7c(c6)-n6c(nc(=O)c8c(Cl)cccc86)C7(C)C)CC5)CC4)nn3)C(C)(C)C)CN(C)C2)cc1` [Compound B124, (2S,4R)-1-((S)-2-(4-((1r,4S)-4-((4-(4-chloro-7,7-dimethyl-5-oxo-5,7-dihydroindolo[1,2-a]quinazolin-10-yl)piperidin-1-yl)methyl)cyclohexyl)-1H-1,2,3-triazol-1-yl)-3,3-dimethylbutanoyl)-4-hydroxy-N-(1-methyl-3-(4-(4-methylthiazol-5-yl)phenyl)azetidin-3-yl)pyrrolidine-2-carboxamide], for which the DC50 at SMARCA4 (HT1080 CRISPR knock-in cells) was 100 to 500 nM; on SMARCA2 (HT1080 CRISPR knock-in cells), less than 100 nM. The Dmax was less than 50% at SMARCA4 and 70 to 90% on SMARCA2.
Consider `Cc1ncsc1-c1ccc(C(CN2CCOCC2)NC(=O)[C@@H]2C[C@@H](O)CN2C(=O)[C@@H](c2cc(O[C@H]3CC[C@H](CN4CCN(c5ccc6c(c5)-n5c(nc(=O)c7c(Cl)cccc75)C6(C)C)CC4)CC3)no2)C(C)C)cc1` (stereo partly drawn) [Compound B163, (2S,4R)-1-((R)-2-(3-(((11,4R)-4-((4-(4-chloro-7,7-dimethyl-5-oxo-5,7-dihydroindolo[1,2-a]quinazolin-10-yl)piperazin-1-yl)methyl)cyclohexyl)oxy)isoxazol-5-yl)-3-methylbutanoyl)-4-hydroxy-N-((R)-1-(4-(4-methylthiazol-5-yl)phenyl)-2-morpholinoethyl)pyrrolidine-2-carboxamide], for which the DC50 at SMARCA4 (HT1080 CRISPR knock-in cells) and on SMARCA2 (HT1080 CRISPR knock-in cells) was less than 100 nM in each case. In addition, the Dmax at SMARCA4 and at SMARCA2 was greater than 90% each time.
For `Cc1ncsc1-c1ccc([C@H](C)NC(=O)[C@@H]2C[C@@H](O)CN2C(=O)[C@H](C(C)C)n2cc(C3CCC(c4cccc5c4C(C)(C)c4nc(=O)c6c(Cl)cccc6n4-5)CC3)nn2)cc1` (stereo partly drawn) [Compound B161, (2S,4R)-1-((S)-2-(4-(4-(4-chloro-7,7-dimethyl-5-oxo-5,7-dihydroindolo[1,2-a]quinazolin-8-yl)cyclohexyl)-1H-1,2,3-triazol-1-yl)-3-methylbutanoyl)-4-hydroxy-N-((S)-1-(4-(4-methylthiazol-5-yl)phenyl)ethyl)pyrrolidine-2-carboxamide], on SMARCA4 (HT1080 CRISPR knock-in cells), the “SMARC A4 HT1080 HiBit Dmax(%)” value is “C (C (50-69% degradation))” and the DC50 was less than 100 nM. In addition, on SMARCA2 (HT1080 CRISPR knock-in cells), the “SMARC A2 HT1080 HiBit Dmax (%)” value was “A (A (>90% degradation))” and the DC50 is less than 100 nM.
Regarding `Cc1cc(-c2scnc2C)ccc1[C@H](C)NC(=O)[C@@H]1C[C@@H](O)CN1C(=O)[C@@H](n1cc([C@H]2CC[C@H](CN3CCC(c4ccc5c(c4)-n4c(nc(=O)c6c(Cl)cccc64)C5(C)C)CC3)CC2)nn1)C(C)(C)C` [Compound B149, (2S,4R)-1-((S)-2-(4-((1r,4S)-4-((4-(4-chloro-7,7-dimethyl-5-oxo-5,7-dihydroindolo[1,2-a]quinazolin-10-yl)piperidin-1-yl)methyl)cyclohexyl)-1H-1,2,3-triazol-1-yl)-3,3-dimethylbutanoyl)-4-hydroxy-N-((S)-1-(2-methyl-4-(4-methylthiazol-5-yl)phenyl)ethyl)pyrrolidine-2-carboxamide], the DC50 at SMARCA4 (HT1080 CRISPR knock-in cells) and at SMARCA2 (HT1080 CRISPR knock-in cells) was less than 100 nM each time. Further, the Dmax at SMARCA4 was 70 to 90%; at SMARCA2, greater than 90%.
As to `Cc1ncsc1-c1ccc(C(CN2CCOCC2)NC(=O)[C@@H]2C[C@@H](O)CN2C(=O)[C@H](c2cc(N3CCC(CN4CCN(c5ccc6c(c5)-n5c(nc(=O)c7c(Cl)cccc75)C65CCCCC5)CC4)CC3)no2)C(C)C)cc1` (stereo in doubt) [Compound B160, (2S,4R)-1-((S)-2-(3-(4-((4-(4′-chloro-5′-oxo-5′H-spiro[cyclohexane-1,7′-indolo[1,2-a]quinazolin]-10′-yl)piperazin-1-yl)methyl)piperidin-1-yl)isoxazol-5-yl)-3-methylbutanoyl)-4-hydroxy-N-((S)-1-(4-(4-methylthiazol-5-yl)phenyl)-2-morpholinoethyl)pyrrolidine-2-carboxamide], the DC50 at SMARCA4 (HT1080 CRISPR knock-in cells) and at SMARCA2 (HT1080 CRISPR knock-in cells) was less than 100 nM throughout. Besides, the Dmax on SMARCA4 was 50 to 69%; at SMARCA2, greater than 90%.
Turning to `Cc1ncsc1-c1ccc([C@H](CCCCCN2CCC(c3ccc4c(c3)C(C)(C)c3nc(=O)c5c(Br)cccc5n3-4)CC2)NC(=O)[C@@H]2C[C@@H](O)CN2C(=O)[C@@H](NC(=O)C2(F)CC2)C(C)(C)C)cc1` [Compound B2, (2S,4R)—N—((S)-6-(4-(4-bromo-7,7-dimethyl-5-oxo-5,7-dihydroindolo[1,2-a]quinazolin-9-yl)piperidin-1-yl)-1-(4-(4-methylthiazol-5-yl)phenyl)hexyl)-1-((S)-2-(1-fluorocyclopropane-1-carboxamido)-3,3-dimethylbutanoyl)-4-hydroxypyrrolidine-2-carboxamide], the DC50 at SMARCA4 (HT1080 CRISPR knock-in cells) and on SMARCA2 (HT1080 CRISPR knock-in cells) was less than 100 nM each time. The Dmax on SMARCA4 and at SMARCA2 was greater than 90% in each case.
With `Cc1ncsc1-c1ccc([C@H](CCCCCN2CCC(c3ccc4c(c3)C(C)(C)c3nc(=O)c5c(Cl)cccc5n3-4)CC2)NC(=O)[C@@H]2C[C@@H](O)CN2C(=O)[C@@H](NC(=O)C2(F)CC2)C(C)(C)C)cc1` [Compound B7, (2S,4R)—N—((S)-6-(4-(4-chloro-7,7-dimethyl-5-oxo-5,7-dihydroindolo[1,2-a]quinazolin-9-yl)piperidin-1-yl)-1-(4-(4-methylthiazol-5-yl)phenyl)hexyl)-1-((S)-2-(1-fluorocyclopropane-1-carboxamido)-3,3-dimethylbutanoyl)-4-hydroxypyrrolidine-2-carboxamide], the DC50 at SMARCA4 (HT1080 CRISPR knock-in cells) and at SMARCA2 (HT1080 CRISPR knock-in cells) was less than 100 nM each time. Also, the Dmax on SMARCA4 and on SMARCA2 was greater than 90% throughout.
